For series [1], the target named is T1, Alpha-1B adrenergic receptor (Homo sapiens, UniProt P35368).
T1 sequence (P35368 whole entry): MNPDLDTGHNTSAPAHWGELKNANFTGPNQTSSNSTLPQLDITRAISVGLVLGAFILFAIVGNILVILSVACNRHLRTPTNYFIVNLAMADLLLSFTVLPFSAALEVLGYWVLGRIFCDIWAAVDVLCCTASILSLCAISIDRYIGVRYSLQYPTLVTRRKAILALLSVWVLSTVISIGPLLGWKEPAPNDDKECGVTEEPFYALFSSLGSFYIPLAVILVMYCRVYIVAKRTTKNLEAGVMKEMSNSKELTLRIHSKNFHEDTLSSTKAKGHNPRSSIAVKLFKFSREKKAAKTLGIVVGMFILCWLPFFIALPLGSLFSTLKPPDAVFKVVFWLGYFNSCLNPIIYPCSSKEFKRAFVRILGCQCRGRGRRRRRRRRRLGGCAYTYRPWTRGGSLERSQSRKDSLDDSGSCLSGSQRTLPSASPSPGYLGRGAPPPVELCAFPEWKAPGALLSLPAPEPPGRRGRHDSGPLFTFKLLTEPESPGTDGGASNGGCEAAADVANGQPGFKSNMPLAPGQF
Nature of the series: Displacement of [3H] prazosin from human cloned adrenoceptor alpha 1B expressed in CHO cell membrane incubated for 30 mins by liquid scintillation counter.

In series [2] the target is T2, Alpha-1D adrenergic receptor (Homo sapiens, UniProt P25100).
T2 sequence (P25100 whole entry): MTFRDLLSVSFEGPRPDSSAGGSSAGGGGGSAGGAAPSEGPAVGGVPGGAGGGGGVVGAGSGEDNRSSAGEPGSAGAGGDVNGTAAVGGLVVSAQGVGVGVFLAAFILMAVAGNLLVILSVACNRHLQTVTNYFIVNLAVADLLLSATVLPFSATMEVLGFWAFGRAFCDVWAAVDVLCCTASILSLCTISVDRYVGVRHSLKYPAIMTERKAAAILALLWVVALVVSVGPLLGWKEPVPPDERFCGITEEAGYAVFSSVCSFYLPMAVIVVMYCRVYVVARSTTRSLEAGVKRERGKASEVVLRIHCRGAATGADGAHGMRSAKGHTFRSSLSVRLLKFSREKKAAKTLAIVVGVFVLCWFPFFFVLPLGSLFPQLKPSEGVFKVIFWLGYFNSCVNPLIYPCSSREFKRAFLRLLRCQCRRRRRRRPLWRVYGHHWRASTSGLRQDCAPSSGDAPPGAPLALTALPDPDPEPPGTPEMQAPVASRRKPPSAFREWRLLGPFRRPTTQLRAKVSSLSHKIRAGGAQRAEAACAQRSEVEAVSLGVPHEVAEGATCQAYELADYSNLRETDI
Nature of the series: biochemical.
Description: Displacement of [3H] prazosin from human cloned adrenoceptor alpha 1D expressed in CHO cell membrane incubated for 30 mins by liquid scintillation counter

Series [3] concerns SH-SY5Y. Nature of the series: Cytotoxicity against human SH-SY5Y cells assessed as reduction in cell viability incubated for 24 hrs by MTT assay. In kind it is cell-based.
In series [4] the test system is SH-SY5Y. Nature of the series: Neuroprotective activity against H2O2-induced cell death in human SH-SY5Y cells at 1 uM incubated for 24 hrs by MTT assay. In kind it is functional.
The subject of series [5] is SH-SY5Y. Nature of the series: Neuroprotective activity against oligomycin A-induced cell death in human SH-SY5Y cells at 1 uM incubated for 24 hrs by MTT assay. In kind it is functional.
Series [6] concerns SH-SY5Y. Nature of the series: Neuroprotective activity against rotenone-induced cell death in human SH-SY5Y cells at 1 uM incubated for 24 hrs by MTT assay. In kind it is functional.
For series [7], the system named is SH-SY5Y. Nature of the series: Neuroprotective activity against H2O2-induced cell death in human SH-SY5Y cells at 0.1 uM incubated for 24 hrs by MTT assay. In kind it is functional. Background: Tetrazolium dyes change colour on reduction, which living cells bring about.
The subject of series [8] is SH-SY5Y. Nature of the series: Neuroprotective activity against rotenone-induced cell death in human SH-SY5Y cells at 0.1 uM incubated for 24 hrs by MTT assay. In kind it is functional.
The nature of series [9]: Apparent permeability from apical to basolateral side in dog MDCK2-MDR1 cells incubated for 120 mins by UV-visible spectrophotometry. In kind it is ADME, cell-based, Canis lupus familiaris. Conditions: MDCK-MDR1.
A short description of series [10]: Efflux ratio of apparent permeability from basolateral to apical side over apical to basolateral side in dog MDCK2-MDR1 cells incubated for 120 mins by UV-visible spctrophotometry. In kind it is ADME, cell-based, Canis lupus familiaris. Particulars: MDCK-MDR1.
The nature of series [11]: Cmax in Sprague-Dawley rat plasma at 10 mg/kg, po measured upto 480 mins by LC/MS-MS analysis. In kind it is ADME, organism-based. Set-up: dose 10 mg/kg, route oral.
Series [12] can be described thus: Tmax in Sprague-Dawley rat plasma at 10 mg/kg, po measured upto 480 mins by LC/MS-MS analysis. In kind it is ADME, organism-based.
Series [13] is described as follows: AUC (0 to t) in Sprague-Dawley rat plasma at 10 mg/kg, po measured upto 480 mins by LC/MS-MS analysis. In kind it is ADME, organism-based. Particulars: in vivo, 8 h.
The nature of series [14]: AUC (0 to infinity) in Sprague-Dawley rat plasma at 10 mg/kg, po measured upto 480 mins by LC/MS-MS analysis. Conditions: in vivo, 8 h. Also on record: dose 10 mg/kg, route oral, time infinity. In kind it is ADME, organism-based.
Series [15] can be described thus: Ratio of drug level in brain to plasma in Sprague-Dawley rat at 10 mg/kg, po measured upto 480 mins by LC/MS-MS analysis. Conditions: read-out: BPR. In kind it is ADME, organism-based.
The nature of series [16]: Cmax in Sprague-Dawley rat brain at 10 mg/kg, po measured upto 480 mins by LC/MS-MS analysis. In kind it is ADME, organism-based. Also on record: dose 10 mg/kg, route oral. Particulars: in vivo, 8 h.
Series [17] is described as follows: AUC (0 to t) in Sprague-Dawley rat brain at 10 mg/kg, po measured upto 480 mins by LC/MS-MS analysis. In kind it is ADME, organism-based. Particulars: in vivo, 8 h.
Series [18] is described as follows: Half life in Sprague-Dawley rat brain at 10 mg/kg, po measured after 15 to 45 mins by LC/MS-MS analysis. In kind it is ADME, organism-based.
Series [19] concerns Rattus norvegicus. Nature of the series: Anxiolytic activity at Sprague-Dawley rat assessed as increase in time spent in open arm at 10 mg/kg, po by EPM test relative to control. In kind it is functional.
In series [20] the test system is Rattus norvegicus. Nature of the series: Anxiolytic activity at Sprague-Dawley rat assessed as increase in time spent in open arm at 20 mg/kg, po by EPM test relative to control. In kind it is functional.
For series [21], the system named is Rattus norvegicus. Nature of the series: Anxiolytic activity at Sprague-Dawley rat assessed as increase in number of open arm entries at 10 to 20 mg/kg, po by EPM test. In kind it is functional, organism-based.
The subject of series [22] is Rattus norvegicus. Nature of the series: Effect on locomotory activity in Sprague-Dawley rat assessed as distance travelled at 10 mg/kg, po by open field test. In kind it is functional, organism-based.
Series [23] concerns Rattus norvegicus. Nature of the series: Anxiolytic activity in at Sprague-Dawley rat assessed as increase in time spent in central area of open field at 10 mg/kg, po by open field test. In kind it is functional, organism-based.
The subject of series [24] is Rattus norvegicus. Nature of the series: Antidepressant activity in Sprague-Dawley rat assessed as decrease in time of immobilization at 10 and 20 mg/kg, po by forced swim test. In kind it is functional, organism-based.
The test system of series [25] is Rattus norvegicus. Nature of the series: Antidepressant activity in Sprague-Dawley rat assessed as time spent on climbing at 5 to 20 mg/kg, po by forced swim test. In kind it is functional, organism-based.
In series [26] the test system is Mus musculus. Nature of the series: Antinociceptive activity in formalin-induced nociception pain Swiss […] mouse model assessed as decrease in perception of II phase of noxious stimulus at 10 mg/kg, ip by formalin test. In kind it is functional, organism-based.
The nature of series [27]: Ratio of compound t1/2 to 8-OH-DPAT t1/2 in Sprague-Dawley rat plasma at 10 mg/kg, po measured upto 480 mins by LC/MS-MS analysis. In kind it is ADME, organism-based. Particulars: in vivo, 8 h.
Series [28] is filed under the species Homo sapiens. Nature of the series: Selectivity ratio of pKi for human cloned 5HT-1AR transfected in HeLa cells to pKi for human cloned adrenoceptor alpha 1D expressed in CHO cell membrane. In kind it is cell-based.

The structures appear in SMILES notation. Active and inactive are the calls of the source. No cut-off for these calls is given here.

For orientation: Ki means the dissociation constant of the complex between target and ligand, obtained from inhibition or displacement. As for `c1ccc(OCCNCC2COC(c3ccccc3)(c3ccccc3)OC2)cc1`, the values for the Ki in series [1] and in [2] were 282 nM and 178 nM, respectively.
With `COc1ccccc1OCCNCC1CCOC(c2ccccc2)(c2ccccc2)O1` (stereo not drawn), the Ki in series [1] was 15.8 nM; in series [2] it was 1.02 nM.
For `COc1ccccc1OCCNCC[C@@H]1CO[C@H](C(c2ccccc2)c2ccccc2)O1` (relative stereo), the results for the inhibition constant Ki in series [1] and in series [2] were 64.6 nM and 16.6 nM, respectively.
On to `COc1ccccc1OCCNCCC1COC(c2ccccc2)(c2ccccc2)O1` (stereo not drawn), for which the results for the Ki in [1] and in [2] were 14.8 nM and 5.75 nM, respectively.
The corresponding values for `COc1ccccc1OCCNCCOC(c1ccccc1)c1ccccc1` are 3020 nM and 10 nM.
The corresponding values for `COc1ccccc1OCCNCC[C@H]1CO[C@H](C(c2ccccc2)c2ccccc2)O1` (relative stereo) are 30.9 nM and 15.8 nM.
As to `OCC(CNCCOc1ccccc1)OC(c1ccccc1)c1ccccc1` (stereo not drawn), the Ki was 2290 nM in series [1] and 57.5 nM in [2].
In the case of `c1ccc(OCCNCCOC(c2ccccc2)c2ccccc2)cc1`, the results for the Ki in [1] and in [2] were 25.1 nM and 1.2 nM, respectively.
Consider `COc1ccccc1OCCNCC(CO)OC(c1ccccc1)c1ccccc1` (stereo not drawn), for which the Ki in series [1] is 91.2 nM; in series [2] it was 5.89 nM.
The IC50 is the point on the concentration scale where inhibition reaches its midpoint. The term Papp A→B denotes how fast a substance crosses the layer from the apical side. For orientation: efflux ratio means the permeability from basolateral to apical divided by that in the opposite direction, in the common usage. As usually defined, the Tmax is the time from dosing to the highest level. The half-life is how long it takes for the measured level to halve. As to `COc1ccccc1OCCNCC1COC(c2ccccc2)(c2ccccc2)OC1.O=C(O)C(=O)O`, the Ki in series [1] was 31.6 nM; in [2], 25.1 nM. In series [3], the IC50 was found to be 31200 nM. For the same compound, the Activity in series [4] came to 79%; in series [5], 83%; in series [6], 61%; in series [7] it was 89%; in [8] it was 63%; in series [19], 20%. Further, the Activity in series [20] was 18%. Further, in [9], the Papp A→B at 2 h came to 26 ×10⁻⁶ cm/s. Besides, the efflux ratio at 2 h in series [10] was 0.49. In addition, the Cmax in series [11] was found to be 95 nM; in series [16], 157.9 nmol/g. The Tmax in series [12] is 30 min. The AUCt in series [13] was found to be 17.4 nmol·min/g; in series [17] it was 7167.6 nmol·min/g. Further, the AUC in series [14] was 18.1 nmol·min/g. The Kp at 8 h in series [15] worked out at 420. This compound came in with a half-life in series [18] of 6.2 min. In addition, the outcome in [21] and in [23] was Active. The outcome in [22] and in series [25] was inactive. Moreover, the inhibition entry in series [24] and in series [26] was “Active” throughout. In addition, the Ratio in [27] is recorded as 3. Besides, the Ratio pKi in series [28] stood at 16.
As to `c1ccc(OCCNCC2CCOC(c3ccccc3)(c3ccccc3)O2)cc1` (stereo not drawn), the Ki in series [1] is 56.2 nM; in series [2], 5.01 nM.

The record behind these values is ChEMBL document CHEMBL4350985, “1,3-Dioxane as a scaffold for potent and selective 5-HT1AR agonist with in-vivo anxiolytic, anti-depressant and anti-nociceptive activity” (Eur J Med Chem, 2019).
